Converted amounts (≈) assume the structure as drawn.
Biological target: T1, α-glucosidase
T1 construct: gene MAL12; enzyme preparation
Test: p-NPG hydrolysis, absorbance […] nm
Type: biochemical
Settings: p-NPG (50 μL of 3 mM), potassium phosphate pH 7.4, 37 °C, 1 h

IC50	Compound
190.4 µg/mL (≈ 665 µM)	O=c1cc(-c2ccc(O)c(O)c2)oc2cc(O)cc(O)c12 [Luteolin]
158.8 µg/mL (≈ 502 µM)	COc1cc(-c2oc3cc(O)cc(O)c3c(=O)c2O)ccc1O [Isorhamnetin]
250.8 µg/mL (≈ 928 µM)	O=c1cc(-c2ccc(O)cc2)oc2cc(O)cc(O)c12 [Apigenin]
> 5000 µg/mL	Oc1cc(O)c2c(c1)O[C@H](c1ccc(O)c(O)c1)[C@H](O)C2 [Epicatechin]
